Assays:
[1] = tested on: HUVEC; assay: Agonist-enhanced neutrophil adherence to HUVEC; assay type: cell-based, human; details: for Inhibition of TNF-α-enhanced neutrophil adhesion to HUVEC: 20 μmol/l, 1 hr pre-treatment, TNF 4 hr
Summary of the method: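 HUVEC were pre-treated 60 min at 37° C. with fatty acids (20 μmol/l), stimulated with TNF (125 U/200 μl) for 4 hr, then co-incubated 30 min with neutrophils (5×10^5 cells/well). Adherence expressed as % of control, mean±SEM of three triplicate experiments.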

[2] = Delayed type hypersensitivity (DTH) to sheep erythrocytes; assay type: in vivo, BALB/c mice; details: 10 mg/kg intraperitoneally prior to antigen challenge
Protocol: FIG. 14 is a representation showing (A) effect of MP3 on in vivo inflammatory response measured as delayed type hypersensitivity (DTH) to sheep erythrocytes and LPS-induced influx of neutrophils and mononuclear cells in the peritoneal cavity in BALB/c mice. In the DTH experiments mice were injected with sheep erythrocytes subcutaneously, challenged with the antigen in the hind foot pad 6 days later and the amount of foot pad swelling measured 48 hr later. One hour prior to challenge mice were given 10 mg/kg body weight of β-oxa fatty acid in 7% w/v, DMSO as vehicle intraperitoneally. […] The data, expressed as % of control, are presented as mean±SEM of 10 and 5 mice for DTH and peritoneal inflammation, respectively. […] The data, expressed as % of control, are presented as mean±SEM of ten mice per group and is representative of two experimental runs. […]
Effect of MP3 (β-oxa-23:4n-6) on the in vivo inflammatory response was measured as a delayed type hypersensitivity (DTH) reaction and LPS-induced influx of neutrophils and mononuclear cells in the peritoneal cavity in BALB/c mice. For DTH experiments, mice were injected subcutaneously with 100 μl of 10% hematocrit sheep erythrocytes, challenged with the antigen (25 μl of 40%) in the hind foot pad 6 days later and the degree of foot pad swelling measured 48 hr later (Ferrante et al, Clin. & Exp. Immunol. 38:70-76, 1979). […]

[3] = tested on: NFκB p65; assay: TNF-stimulated nuclear translocation of NFκB in HUVEC; assay type: cell-based, human; details: 20 μmol/l
Protocol: FIG. 17 is a representation showing (A) the effect of MP3 (β-oxa 23:4n-6) and DHA on TNF-induced degradation of IκBα in HUVEC. Cells were pre-treated with the fatty acids (20 μmol/l) for 30 min and then stimulated with TNF (125 U/ml) for 10 min. After cell lysis the proteins were analyzed by Western blots using anti-IκBα antibodies. (B) The effects of β-oxa-23:4n-6 on TNF-induced activation of transcriptional factor, NFκB in HUVEC. Cells were pre-treated with β-oxa-23:4n-6 (20 μmol/l) for 30 min and then stimulated with TNF for 2 hr. After cell lysis, nuclear fractions were prepared, nuclear proteins separated by SDS PAGE (12% w/v gel), transferred to nitrocellulose and probed with an anti-NFκB p65 antibody (Santa Cruz). […] (C) The effect of β-oxa 23:4n-6 on TNF-stimulated activation of IKK. Cells were pre-treated with β-oxa 23:4n-6 (20 μmol/l) for 30 min and then stimulated with TNF for 5 min. After cell lysis IKK was immunoprecipitated with anti-IKKα antibody and kinase activity determined. […]
Proteins (50 μg) were separated by SDS PAGE (12% w/v gel), transferred to nitrocellulose and probed with an anti-NFκB p65 or anti-IκBα antibody (Santa Cruz Biotech, Santa Cruz, Calif.). Immunocomplexes were detected by enhanced chemiluminescence (Hii et al, 1998 supra).

**Q.** What does the source list for CCCCC/C=C\C/C=C\C/C=C\C/C=C\CCCCOCC(=O)O [MP3, β-oxa-23:4n-6]?
**A.** Inhibition of LPS- or PMA-induced neutrophil adhesion to HUVEC [1]: inhibited the increase in neutrophil adhesion; Inhibition of TNF-α-enhanced neutrophil adhesion to HUVEC [1]: greatest suppression; Inhibition of TNF-α-enhanced neutrophil adhesion to HUVEC ([1]; listed as β-oxa 23:4n-6): most active; Inhibition of TNF-α-enhanced neutrophil adhesion to HUVEC ([1]; listed as β-oxa-23:4n-6): inhibited their ability to be stimulated; Concentration with significant suppression of TNF-α-induced neutrophil adhesion ([1]; pre-treatment time of 1 hr): ≥ 5 µmol/L; Delayed type hypersensitivity reaction (foot pad swelling) [2]: inhibited in ability to manifest a delayed type hypersensitivity reaction; Reduction of TNF-stimulated nuclear accumulation of NFκB ([3]; 30 min, TNF 2 hr, mean±SEM, three experiments): 66±2%; Translocation of NFκB to the nucleus ([3]; TNF): inhibition of translocation of NFκB to the nucleus

From US20090215895A1, “Therapeutic and carrier molecules” (PEPLIN BIOLIPIDS PTY LTD, priority 2004, published 2009)
